Source: patent US20250114345A1, “COMPOUNDS AND COMPOSITIONS AS CBP/P300 DEGRADERS AND USES THEREOF” (Oncopia Therapeutics, Inc. d/b/a/ SK Life Science Labs, priority 2023, published 2025)

Molecular target: T1, p300 (Homo sapiens, UniProt Q09472)
T1 construct: host or cells: A549 P300 HiBit cells
Assay: P300 degradation, HiBit technology in A549 P300 HiBit cells (2 h)
Assay type: cell-based
Settings: 2 hrs post treatment; for Dmax: A549, A549 P300 HiBit cells; for DC50: A549 P300 HiBit cells
How it was run: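 Degradation potency and Dmax came from HiBiT luminescence in tagged A549 cells treated with serially diluted compound (DMSO stocks at 10 mM) after overnight equilibration in F-12K with 10% heat-inactivated FBS.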

T1 sequence (Q09472 whole entry): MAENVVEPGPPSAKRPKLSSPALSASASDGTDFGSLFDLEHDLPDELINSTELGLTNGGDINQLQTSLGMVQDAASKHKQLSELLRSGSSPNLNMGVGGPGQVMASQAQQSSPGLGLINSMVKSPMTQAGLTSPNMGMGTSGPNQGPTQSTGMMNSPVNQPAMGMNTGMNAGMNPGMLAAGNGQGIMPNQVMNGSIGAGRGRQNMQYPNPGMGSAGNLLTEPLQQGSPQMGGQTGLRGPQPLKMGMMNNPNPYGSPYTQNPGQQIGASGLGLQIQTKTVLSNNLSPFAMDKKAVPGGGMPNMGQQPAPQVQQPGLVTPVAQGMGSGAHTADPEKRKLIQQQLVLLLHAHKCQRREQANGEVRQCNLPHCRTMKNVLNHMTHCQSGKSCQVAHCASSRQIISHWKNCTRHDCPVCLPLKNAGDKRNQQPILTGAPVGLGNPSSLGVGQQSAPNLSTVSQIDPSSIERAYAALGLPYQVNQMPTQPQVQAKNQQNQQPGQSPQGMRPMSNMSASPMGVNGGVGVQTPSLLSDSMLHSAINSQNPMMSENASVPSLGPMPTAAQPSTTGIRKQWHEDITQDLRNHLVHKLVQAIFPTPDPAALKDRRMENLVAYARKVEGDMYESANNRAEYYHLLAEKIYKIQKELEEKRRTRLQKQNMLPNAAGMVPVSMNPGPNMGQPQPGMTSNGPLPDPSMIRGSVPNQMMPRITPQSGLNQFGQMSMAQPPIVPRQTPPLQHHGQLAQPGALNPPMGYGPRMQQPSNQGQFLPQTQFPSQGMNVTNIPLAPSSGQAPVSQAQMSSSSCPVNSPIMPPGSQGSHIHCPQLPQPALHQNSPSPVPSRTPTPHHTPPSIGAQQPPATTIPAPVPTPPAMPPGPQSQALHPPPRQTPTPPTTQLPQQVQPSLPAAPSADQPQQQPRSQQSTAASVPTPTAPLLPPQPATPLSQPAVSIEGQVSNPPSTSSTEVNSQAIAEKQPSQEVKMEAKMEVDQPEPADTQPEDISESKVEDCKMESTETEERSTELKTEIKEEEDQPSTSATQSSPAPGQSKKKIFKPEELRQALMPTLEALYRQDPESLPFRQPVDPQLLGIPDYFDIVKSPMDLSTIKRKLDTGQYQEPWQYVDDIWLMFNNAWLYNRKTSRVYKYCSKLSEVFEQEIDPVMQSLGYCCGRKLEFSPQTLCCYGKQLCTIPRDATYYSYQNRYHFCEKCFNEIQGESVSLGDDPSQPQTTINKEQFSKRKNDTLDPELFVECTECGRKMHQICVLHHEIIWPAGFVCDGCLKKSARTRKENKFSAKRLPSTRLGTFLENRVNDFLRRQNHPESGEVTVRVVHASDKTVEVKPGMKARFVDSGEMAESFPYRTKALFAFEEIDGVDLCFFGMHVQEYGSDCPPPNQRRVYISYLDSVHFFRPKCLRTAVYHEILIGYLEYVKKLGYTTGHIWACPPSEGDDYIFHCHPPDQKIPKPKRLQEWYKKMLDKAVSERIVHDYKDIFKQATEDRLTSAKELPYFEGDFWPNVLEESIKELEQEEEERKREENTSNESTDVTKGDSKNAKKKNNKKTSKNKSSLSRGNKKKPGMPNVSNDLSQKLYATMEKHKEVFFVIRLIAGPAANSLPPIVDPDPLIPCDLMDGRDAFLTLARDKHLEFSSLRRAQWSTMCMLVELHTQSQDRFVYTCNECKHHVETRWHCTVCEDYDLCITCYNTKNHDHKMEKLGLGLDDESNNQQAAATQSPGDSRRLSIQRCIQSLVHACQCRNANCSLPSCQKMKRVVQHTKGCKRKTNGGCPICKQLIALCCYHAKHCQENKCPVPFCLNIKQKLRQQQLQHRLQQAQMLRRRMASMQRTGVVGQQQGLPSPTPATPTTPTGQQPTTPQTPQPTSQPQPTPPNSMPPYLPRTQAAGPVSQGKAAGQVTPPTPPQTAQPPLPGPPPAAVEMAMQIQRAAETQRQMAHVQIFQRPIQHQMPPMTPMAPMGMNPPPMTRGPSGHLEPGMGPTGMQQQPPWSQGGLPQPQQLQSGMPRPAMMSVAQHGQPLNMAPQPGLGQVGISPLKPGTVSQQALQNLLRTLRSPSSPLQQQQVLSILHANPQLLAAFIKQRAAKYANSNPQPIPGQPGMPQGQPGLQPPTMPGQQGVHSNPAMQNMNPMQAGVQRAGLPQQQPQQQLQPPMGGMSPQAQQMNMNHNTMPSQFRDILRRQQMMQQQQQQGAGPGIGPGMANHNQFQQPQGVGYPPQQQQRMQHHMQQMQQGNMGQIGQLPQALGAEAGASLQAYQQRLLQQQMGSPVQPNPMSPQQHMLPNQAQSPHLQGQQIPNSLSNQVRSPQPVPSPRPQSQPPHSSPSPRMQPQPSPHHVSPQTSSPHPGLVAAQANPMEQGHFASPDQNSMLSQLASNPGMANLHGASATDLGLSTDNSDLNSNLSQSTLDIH

Row | Structure (SMILES) | Dmax [%] | DC50 [nM]
1 | Cc1cc2c(N3CCCc4nc(-c5ccc6c(c5)C(=O)N(CC#Cc5ccc7occ(C8CCC(=O)NC8=O)c7c5)C6)ncc43)cc(C3CCOCC3)cc2n(C)c1=O (centres unmarked) [Example B44, 3-(5-(3-(6-(5-(1,3-dimethyl-2-oxo-7-(tetrahydro-2H-pyran-4-yl)-1,2-dihydroquinolin-5-yl)-5,6,7,8-tetrahydropyrido[3,2-d]pyrimidin-2-yl)-1-oxoisoindolin-2-yl)prop-1-yn-1-yl)benzofuran-3-yl)piperidine-2,6-dione] | 20 to 39 | 1 to 9.9
2 | Cc1cc(-c2ncc3c(n2)CCCN3c2cccc3c2cc(C)c(=O)n3C)cnc1C(=O)NCC#Cc1ccc2occ(C3CCC(=O)NC3=O)c2c1 (centres unmarked) [Example B45, 5-(5-(1,3-dimethyl-2-oxo-1,2-dihydroquinolin-5-yl)-5,6,7,8-tetrahydropyrido[3,2-d]pyrimidin-2-yl)-N-(3-(3-(2,6-dioxopiperidin-3-yl)benzofuran-5-yl)prop-2-yn-1-yl)-3-methylpicolinamide] | > 80 | 1 to 9.9
3 | COc1cc(-c2ncc3c(n2)CCCN3c2cccc3c2cc(C)c(=O)n3C)cnc1C(=O)NCC#Cc1ccc2occ(C3CCC(=O)NC3=O)c2c1 (centres unmarked) [Example B50, 5-(5-(1,3-dimethyl-2-oxo-1,2-dihydroquinolin-5-yl)-5,6,7,8-tetrahydropyrido[3,2-d]pyrimidin-2-yl)-N-(3-(3-(2,6-dioxopiperidin-3-yl)benzofuran-5-yl)prop-2-yn-1-yl)-3-methoxypicolinamide] | > 80 | 1 to 9.9

Now from value to compound:

Row | Dmax [%] | DC50 [nM] | Structure (SMILES)
4 | > 80 | < 1 | CCC(=O)N1CCC(c2cc(N3CCCc4nc(-c5ccc(C(=O)NCC#Cc6ccc7occ(C8CCC(=O)NC8=O)c7c6)nc5)ncc43)c3cc(C)c(=O)n(C)c3c2)CC1 (centres unmarked) [Example B52, 5-(5-(1,3-dimethyl-2-oxo-7-(1-propionyl-piperidin-4-yl)-1,2-dihydroquinolin-5-yl)-5,6,7,8-tetrahydropyrido[3,2-d]pyrimidin-2-yl)-N-(3-(3-(2,6-dioxopiperidin-3-yl)benzofuran-5-yl)prop-2-yn-1-yl)picolinamide]
5 | < 20 | > 1000 | Cc1cc2c(N3CCCc4nc(-c5ccc(C(=O)NCC#Cc6ccc7c(c6)N(C6CCC(=O)NC6=O)CCCC7)nc5)ncc43)cc(C3CCOCC3)cc2n(C)c1=O (centres unmarked) [Example B57, 5-(5-(1,3-dimethyl-2-oxo-7-(tetrahydro-2H-pyran-4-yl)-1,2-dihydroquinolin-5-yl)-5,6,7,8-tetrahydropyrido[3,2-d]pyrimidin-2-yl)-N-(3-(1-(2,6-dioxopiperidin-3-yl)-2,3,4,5-tetrahydro-1H-benzo[b]azepin-8-yl)prop-2-yn-1-yl) picolinamide]
6 | > 80 | 1 to 9.9 | Cc1cc2c(N3CCN(C)c4nc(-c5ccc(C(=O)NCC#Cc6cc7c(C8CCC(=O)NC8=O)cccc7o6)nc5)ncc43)cccc2n(C)c1=O (centres unmarked) [Example B65, 5-(5-(1,3-dimethyl-2-oxo-1,2-dihydroquinolin-5-yl)-8-methyl-5,6,7,8-tetrahydropteridin-2-yl)-N-(3-(4-(2,6-dioxopiperidin-3-yl)benzofuran-2-yl)prop-2-yn-1-yl)picolinamide]
7 | 60 to 79 | 1 to 9.9 | Cc1cc2c(N3CCCc4nc(-c5ccc(C(=O)NCC#Cc6ccc7occ(C8CCC(=O)NC8=O)c7c6)nc5)ncc43)nc(C3CCOCC3)cc2n(C)c1=O (centres unmarked) [Example B70, 5-(5-(1,3-dimethyl-2-oxo-7-(tetrahydro-2H-pyran-4-yl)-1,2-dihydro-1,6-naphthyridin-5-yl)-5,6,7,8-tetrahydropyrido[3,2-d]pyrimidin-2-yl)-N-(3-(3-(2,6-dioxopiperidin-3-yl)benzofuran-5-yl)prop-2-yn-1-yl)picolinamide]
